Data as given in US9850227B2 (YUHAN CORPORATION, priority 2011, dated 2017).
Structures can show the parent of a compound that is named as a salt.

Target: T1, human 5-HT4(a) (Homo sapiens, UniProt Q13639)
T1 construct: host or cells: GeneBIAzer HTR4-CRE-bla CHO-K1 cells
Test: Evaluation of agonistic activity in CHO-K1 cells expressing human 5-HT4(a) (GeneBIAzer HTR4-CRE-bla CHO-K1 cells, beta-lactamase fluorescence ratio, EC50 from 8 concentrations)
Assay type: cell-based
In short: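 HTR4-CRE-bla CHO-K1 cells (10^4 per well, overnight in 1% FBS medium) exposed to compound for 5 h, then beta-lactamase substrate 2 h in the dark. Fluorescence ratio at 465/535 nm after 410 nm excitation; EC50 by non-linear regression over 8 concentrations.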

T1 sequence (Q13639 1-387 isoform Q13639-2): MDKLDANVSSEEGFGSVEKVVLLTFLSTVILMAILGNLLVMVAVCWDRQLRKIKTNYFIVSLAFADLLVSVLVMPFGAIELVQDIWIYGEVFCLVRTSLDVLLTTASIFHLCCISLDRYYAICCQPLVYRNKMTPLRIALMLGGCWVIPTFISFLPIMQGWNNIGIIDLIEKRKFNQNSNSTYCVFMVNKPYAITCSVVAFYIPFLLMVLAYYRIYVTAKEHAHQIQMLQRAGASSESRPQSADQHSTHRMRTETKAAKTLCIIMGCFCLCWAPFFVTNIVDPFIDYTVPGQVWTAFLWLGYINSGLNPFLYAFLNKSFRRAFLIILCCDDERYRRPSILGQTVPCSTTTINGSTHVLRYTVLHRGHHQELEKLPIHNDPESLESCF

Compound | EC50 [pM]
CCCc1cc(N2CCC[C@@H](NC(C)=O)C2)nc(Nc2ccc(F)c(C(F)(F)F)c2)n1 [Example 277, (R)—N-{1-[2-(4-fluoro-3-trifluoromethylphenylamino)-6-propylpyrimidin-4-yl]piperidin-3-yl}acetamide] | 14
CCCc1cc(N2CCC[C@@H](NC(C)=O)C2)nc(Nc2cc(N)cc(C(F)(F)F)c2)n1 [Example 278, (R)—N-(1-{2-[3-amino-5-(trifluoromethyl)phenylamino]-6-propylpyrimidin-4-yl}piperidin-3-yl)acetamide] | 10
CCCc1cc(N2CCC[C@@H](NC(C)=O)C2)nc(Nc2ccc(N)c(C(F)(F)F)c2)n1 [Example 279, (R)—N-(1-{2-[4-amino-3-(trifluoromethyl)phenylamino]-6-propylpyrimidin-4-yl}piperidin-3-yl)acetamide] | 14
CCCc1cc(N2CCC[C@@H](NC)C2)nc(Nc2ccc(F)c(C#N)c2)n1 [Example 282, (R)-2-fluoro-5-[4-(3-methylaminopiperidin-1-yl)-6-propylpyrimidin-2-ylamino]benzonitrile] | 73
CCCc1cc(N2CCC[C@@H](NC)C2)nc(Nc2ccc(C)c(C#N)c2)n1 [Example 283, (R)-2-methyl-5-[4-(3-methylaminopiperidin-1-yl)-6-propylpyrimidin-2-ylamino]benzonitrile] | 8.4
CCCc1cc(N2CCC[C@@H](NC)C2)nc(Nc2cc(N)cc(C(F)(F)F)c2)n1 [Example 284, (R)—N^1-[4-(3-methylaminopiperidin-1-yl)-6-propylpyrimidin-2-yl]-5-(trifluoromethyl)benzene-1,3-diamine] | 3.2
CCCc1cc(N2CCC[C@@H](NC)C2)nc(Nc2ccc(N)c(C(F)(F)F)c2)n1 [Example 285, (R)—N^1-[4-(3-methylaminopiperidin-1-yl)-6-propylpyrimidin-2-yl]-3-(trifluoromethyl)benzene-1,4-diamine] | 5
CCCc1cc(N2CCC[C@@H](NC)C2)nc(Nc2cc(N)cc(C#N)c2)n1 [Example 286, (R)-3-amino-5-[4-(3-methylaminopiperidin-1-yl)-6-propylpyrimidin-2-ylamino]benzonitrile] | 4.4
CCCc1cc(N2CCC[C@@H](NC)C2)nc(Nc2ccc(F)c(C(F)(F)F)c2)n1 [Example 287, (R)-(4-fluoro-3-trifluoromethylphenyl)-[4-(3-methylaminopiperidin-1-yl)-6-propylpyrimidin-2-yl]amine] | 26
CCCc1cc(N2CCC[C@@H](NCC)C2)nc(Nc2ccc(N)c([N+](=O)[O-])c2)n1 [Example 288, (R)—N^1-[4-(3-ethylaminopiperidin-1-yl)-6-propylpyrimidin-2-yl]-3-nitrobenzene-1,4-diamine] | 4.6
CCCc1cc(N2CCC[C@@H](NCC)C2)nc(Nc2ccc(F)c(N)c2)n1 [Example 289, (R)—N^1-[4-(3-ethylaminopiperidin-1-yl)-6-propylpyrimidin-2-yl]-4-fluorobenzene-1,3-diamine] | 6.5
CCCc1cc(N2CCC[C@@H](NCC)C2)nc(Nc2cc(N)cc(C(F)(F)F)c2)n1 [Example 290, (R)—N^1-[4-(3-ethylaminopiperidin-1-yl)-6-propylpyrimidin-2-yl]-5-(trifluoromethyl)benzene-1,3-diamine] | 4.1
CCCc1cc(N2CCC[C@@H](NCC)C2)nc(Nc2ccc(N)c(C(F)(F)F)c2)n1 [Example 291, (R)—N^1-[4-(3-ethylaminopiperidin-1-yl)-6-propylpyrimidin-2-yl]-3-(trifluoromethyl)benzene-1,4-diamine] | 2.8
CCCc1cc(N2CCC[C@@H](NCC)C2)nc(Nc2cc(N)cc(C#N)c2)n1 [Example 292, (R)-3-amino-5-[4-(3-ethylaminopiperidin-1-yl)-6-propylpyrimidin-2-ylamino]benzonitrile] | 19
CCCCc1cc(N2CCC[C@@H](N)C2)nc(Nc2ccc(C)c(C#N)c2)n1 [Example 293, (R)-5-[4-(3-aminopiperidin-1-yl)-6-butylpyrimidin-2-ylamino]-2-methylbenzonitrile] | 23
CCCCc1cc(N2CCC[C@@H](N)C2)nc(Nc2ccc(F)c(C#N)c2)n1 [Example 294, (R)-5-[4-(3-aminopiperidin-1-yl)-6-butylpyrimidin-2-ylamino]-2-fluorobenzonitrile] | 108
CCCCc1cc(N2CCC[C@@H](NC(C)=O)C2)nc(Nc2ccc(C)c(C#N)c2)n1 [Example 295, (R)—N-{1-[6-butyl-2-(3-cyano-4-methylphenylamino)pyrimidin-4-yl]piperidin-3-yl}acetamide] | 8.6
CCCc1cc(N2CCC[C@H](NCC)C2)nc(Nc2ccc(C)c(C#N)c2)n1 [Example 296, (S)-5-[4-(3-ethylaminopiperidin-1-yl)-6-propylpyrimidin-2-ylamino]-2-methylbenzonitrile dihydrochloride] | 15
CCCc1cc(N2CCCC(NCC)C2)nc(Nc2ccc(C)c(C#N)c2)n1 (stereo not drawn) [Example 297, 5-[4-(3-ethylaminopiperidin-1-yl)-6-propylpyrimidin-2-ylamino]-2-methylbenzonitrile dihydrochloride] | 2.4
CCCCc1cc(N2CCCC(NC(C)=O)C2)nc(Nc2ccc(C)c(C#N)c2)n1 (stereo not drawn) [Example 298, N-{1-[6-butyl-2-(3-cyano-4-methylphenylamino)pyrimidin-4-yl]piperidin-3-yl}acetamide hydrochloride] | 12
CCCCc1cc(N2CCC[C@@H](NCC)C2)nc(Nc2ccc(C)c(C#N)c2)n1 [Example 299, (R)-5-({4-butyl-6-[3-(ethylamino)piperidin-1-yl]pyrimidin-2-yl}amino)-2-methylbenzonitrile] | 4
CCCCN[C@@H]1CCCN(c2cc(CCCC)nc(Nc3ccc(C)c(C#N)c3)n2)C1 [Example 300, (R)-5-({4-butyl-6-[3-(butylamino)piperidin-1-yl]pyrimidin-2-yl}amino)-2-methylbenzonitrile] | 9.7
CCCCCN[C@@H]1CCCN(c2cc(CCCC)nc(Nc3ccc(C)c(C#N)c3)n2)C1 [Example 301, (R)-5-({4-butyl-6-[3-(pentylamino)piperidin-1-yl]pyrimidin-2-yl}amino)-2-methylbenzonitrile] | 19
CCCCc1cc(N2CCC[C@@H](NCC(C)C)C2)nc(Nc2ccc(C)c(C#N)c2)n1 [Example 302, (R)-5-({4-butyl-6-[3-(isobutylamino)piperidin-1-yl]pyrimidin-2-yl}amino)-2-methylbenzonitrile] | 19
CCCCc1cc(N2CCC[C@@H](NCCC(C)C)C2)nc(Nc2ccc(C)c(C#N)c2)n1 [Example 303, (R)-5-({4-butyl-6-[3-(isopentylamino)piperidin-1-yl]pyrimidin-2-yl}amino)-2-methylbenzonitrile] | 25
CCCCc1cc(N2CCC[C@@H](NCC(C)(C)C)C2)nc(Nc2ccc(C)c(C#N)c2)n1 [Example 304, (R)-5-({4-butyl-6-[3-(neopentylamino)piperidin-1-yl]pyrimidin-2-yl}amino)-2-methylbenzonitrile] | 49
CCCCc1cc(N2CCC[C@@H](NCCCSC)C2)nc(Nc2ccc(C)c(C#N)c2)n1 [Example 305, (R)-5-{[4-butyl-6-(3-{[3-(methylthio)propyl]amino}piperidin-1-yl)pyrimidin-2-yl]amino}-2-methylbenzonitrile] | 9.1
